From article PMC10818380, “Triphenylphosphonium Analogs of Short Peptide Related to Bactenecin 7 and Oncocin 112 as Antimicrobial Agents” (Pharmaceutics, 2024)
In brackets after ≈: the same amount, converted by molar mass. Like-named read-outs stand apart in the source and are kept apart here. Square brackets hold non-standard residues; d marks the D form. Peptide text beside a SMILES is read from it. * marks the point of attachment. X2 = c1ccc([P+](CCCCCCCCCCN*)(c2ccccc2)c2ccccc2)cc1; X1 = c1ccc([P+](CCN*)(c2ccccc2)c2ccccc2)cc1

Assays:
[1] = tested on: bacterial translation (E. coli S30 extract); test: In vitro translation inhibition of firefly luciferase mRNA, E. coli S30 extract; assay type: biochemical; settings: 30 µM
Experimental: Briefly, in vitro-transcribed firefly luciferase mRNA (fluc) was translated using the E. coli S30 Extract System for Linear Templates (Promega, Madison, WI, USA). Reaction mixtures (with a 5 μL total volume) supplemented with 0.1 mM of a mixture of all canonical amino acids, 4 U of RiboLock RNase Inhibitor (Thermo Fisher Scientific, Waltham, MA, USA), and 0.1 mM of D-luciferin (Sigma-Aldrich, Burlington, MA, USA) were pre-incubated at RT for 5 min after the addition of the tested compounds at a final concentration of 30 µM. Then, 50 ng of the mRNA was added to each reaction tube, and the mixtures were immediately subjected to continuous chemiluminescence measurements using the VICTOR X5 Multilabel Plate Reader (PerkinElmer, Waltham, MA, USA) at 37 °C for 30 min. The maximal rates of the firefly luciferase (Fluc) accumulation were calculated using the OriginPro 7.5 software. The values were normalized to a positive control (0.3% DMSO, assigned a value of 100%).

[2] = tested on: E. coli JW5503 (∆tolC) (KanS) pDualrep2; test: pDualrep2 double-reporter agar plate test; assay type: cell-based; settings: 1 µL of 10 mM solution on agar plate
Experimental: The “pDualrep2” system was used to evaluate the mechanism of the antimicrobial action of the synthesized compounds. This system is based on the hypersensitive strain E. coli JW5503 (∆tolC) (KanS) transformed with the “pDualrep2” plasmid, which allows one to sort out suppressors of protein synthesis or SOS response inducers. Briefly, 1 µL of 10 mM water solutions of Bac(1–10), Bac(1–10, R/Y), Bac(1–10, R/Y)-Cn-TPP, TPP-C10-Bac(1–10, R/Y), and Onc112 were applied onto the agar plate that already contained a layer of the reporter strain E. coli JW5503 (∆tolC) (KanS) pDualrep2, and then the plate was incubated overnight at 37 °C. The agar plate was scanned using the ChemiDoc^TM Imaging System (Bio-Rad Laboratories, Hercules, CA, USA), containing two channels, “Cy3-blot” (553/574 nm; green pseudocolor) for Turbo Red Fluorescent Protein (TurboRFP) detection and “Cy5-blot” (588/633 nm; red pseudocolor) for Katushka2S fluorescence. […] Levofloxacin (LEV; 50 μg/mL, 1 μL) and erythromycin (ERY; 5 mg/mL, 1 μL) were utilized as positive controls for DNA and protein synthesis inhibitors, respectively.

[3] = tested on: E. coli JW0368 ΔsbmA; test: microbe, parasite or virus in culture; assay type: cell-based; settings: for MIC: E. coli ∆sbmA, 37 °C, 18 h; for difference of MIC values, E. coli ΔsbmA versus wild type: ratio of MIC values of Table 1
Experimental: (§1) The MIC values for Bac(1–10), Bac(1–10, R/Y), Bac(1–10, R/Y)-Cn-TPP, TPP-C10-Bac(1–10, R/Y), and Onc112 were determined via LB broth microdilution, as recommended by CLSI in the Methods for Dilution Antimicrobial Susceptibility Tests for Bacteria that Grow Aerobically, Approved Standard, 9th ed., CLSI document M07-A9, using in-house-prepared panels. The compounds were diluted in a 96-well microtiter plate to final concentrations ranging from 0.1 to 100 µM in a 200 µL aliquot of the bacterial suspension, followed by incubation at 37 °C for 18 h. The cell concentration was estimated according to the absorbance (A600). The measurements were performed with a VICTOR X5 Multilabel Plate Reader (PerkinElmer, Waltham, MA, USA). The following bacterial strains were used: E. coli BW25113, E. coli JW0368 ΔsbmA, B. subtilis 168, and B. subtilis CFR [39].

[4] = tested on: E. coli BW25113; test: microbe, parasite or virus in culture; assay type: cell-based; settings: E. coli BW25113, 37 °C, 18 h
Experimental: as §1

[5] = tested on: B. subtilis 168; test: microbe, parasite or virus in culture; assay type: cell-based
Experimental: as §1

[6] = tested on: B. subtilis CFR; test: microbe, parasite or virus in culture; assay type: cell-based; settings: CFR, 18 h
Experimental: as §1

[7] = tested on: 70S E. coli ribosome; test: Competition-binding assay, displacement of BODIPY-Bac(1–10), fluorescence anisotropy; settings: read-out: apparent dissociation constant (KD)
Experimental: 70S ribosomes were isolated from E. coli MRE600 cells according to a published procedure. The binding of BODIPY-Bac(1–10) to 70S E. coli ribosomes was performed according to the following procedure. BODIPY-Bac(1–10) (16 nM) was incubated with ribosomes (from 0.5 nM to 2000 nM) for 2 h at 26 °C in a buffer containing 20 mM of HEPES-KOH (pH 7.5), 50 mM of NH4Cl, 10 mM of Mg(CH3COO)2, 4 mM of β-mercaptoethanol, and 0.05% Tween-20. The binding affinities of peptides 1 and 2, their TPP analogs 3–5, as well as the control compounds for the E. coli ribosome were analyzed via a competition-binding assay using fluorescently labeled BODIPY-Bac(1–10) or BODIPY-ERY, as described before in [38, 54]. The fluorescent compound (16 nM) was mixed with ribosomes (84 nM for BODIPY-Bac(1–10) and 46 nM for BODIPY-ERY) in the buffer. Solutions of the tested compounds were added to the obtained complexes to final concentrations ranging from 0.01 to 100 µM. The mixtures were incubated for 2 h at 26 °C, and then the values of fluorescence anisotropy were measured with a VICTOR X5 Multilabel Plate Reader (PerkinElmer, Waltham, MA, USA) using a 384-well plate. The excitation wavelength was 485 nm, and the emission wavelength was 535 nm. From the data obtained, apparent dissociation constants were calculated.

In the case of CC[C@H](C)[C@H](NC(=O)[C@H](CCCNC(=N)N)NC(=O)[C@@H](N)CCCNC(=N)N)C(=O)N[C@@H](CCCNC(=N)N)C(=O)N1CCC[C@H]1C(=O)N[C@@H](CCCNC(=N)N)C(=O)N1CCC[C@H]1C(=O)N1CCC[C@H]1C(=O)N[C@@H](Cc1ccc(O)cc1)C(=O)N[C@@H](CC(C)C)C(=O)NCCCCCCCCCC[P+](c1ccccc1)(c1ccccc1)c1ccccc1 [Compound 4, Bac(1–10, R/Y)-C10-TPP] (H-RRIRPRPPYL-X2; N-terminus assumed), the “inhibition of bacterial translation of firefly luciferase (Fluc) mRNA” value (from here on “inhibition … (Fluc) mRNA”) [1] is reported as “almost completely”, the “inhibitory effect on growth of bacterial cells” value [2] is reported as “demonstrated an inhibitory effect on the growth of bacterial cells” and the “reporter induction (Katushka2S red pseudocolor = protein synthesis inhibition)” value [2] is reported as “red pseudocolor reporter induction was observed”. For the same molecule, the MIC [3] was 100 µM, the “comparison of MIC values, E. coli ΔsbmA versus wild type” value ([3]; MIC values of Table 1) was “the same” and the MIC [4] was 100 µM. For the same molecule, the MIC ([5]; B. subtilis 168, 37 °C, 18 h) was 1.6 µM, the MIC [6] was 0.8 µM and the Kd ([7]; CI (α = 0.05)) was 250 ± 40 nM.

CC[C@H](C)[C@H](NC(=O)[C@H](CCCNC(=N)N)NC(=O)[C@@H](N)CCCNC(=N)N)C(=O)N[C@@H](CCCNC(=N)N)C(=O)N1CCC[C@H]1C(=O)N[C@@H](CCCNC(=N)N)C(=O)N1CCC[C@H]1C(=O)N1CCC[C@H]1C(=O)N[C@@H](Cc1ccc(O)cc1)C(=O)N[C@@H](CC(C)C)C(=O)NCC[P+](c1ccccc1)(c1ccccc1)c1ccccc1 [Compound 3, Bac(1–10, R/Y)-C2-TPP] (H-RRIRPRPPYL-X1; N-terminus assumed) was tested, and the “inhibition … (Fluc) mRNA” value [1] was “almost completely”, the “inhibitory effect on growth of bacterial cells” value [2] was “demonstrated an inhibitory effect on the growth of bacterial cells” and the “reporter induction (Katushka2S red pseudocolor = protein synthesis inhibition)” value [2] was “red pseudocolor reporter induction was observed”. For the same molecule, the MIC [3] was >100 µM, the “difference of MIC values, E. coli ΔsbmA versus wild type” value [3] was “four” and the MIC [4] was 26.3 µM. The MIC ([5]; B. subtilis 168, 37 °C, 18 h) was 12.5 µM, the MIC [6] was 50 µM and the Kd ([7]; CI (α = 0.05)) was 260 ± 30 nM.

In the case of CC[C@H](C)[C@H](NC(=O)[C@@H](CCCNC(=N)N)NC(=O)[C@H](CCCNC(=N)N)NC(=O)[C@@H]1CCCN1C(=O)[C@@H]1CCCN1C(=O)[C@H](CCCNC(=N)N)NC(=O)[C@@H]1CCCN1C(=O)[C@H](CCCNC(=N)N)NC(=O)[C@@H]1CCCN1C(=O)[C@H](CC(C)C)NC(=O)[C@H](Cc1ccc(O)cc1)NC(=O)[C@@H]1CCCN1C(=O)[C@@H]1CCCN1C(=O)[C@H](CCCCN)NC(=O)[C@H](CC(=O)O)NC(=O)[C@@H](N)C(C)C)C(=O)N[C@@H](Cc1ccc(O)cc1)C(=O)N[C@@H](CC(N)=O)C(=O)N[C@H](CCCNC(=N)N)C(N)=O [Onc112, reference compound] (H-VDKPPYLPRPRPPR[dR]IYN[dR]-NH2; N-terminus assumed), the “inhibition … (Fluc) mRNA” value [1] is reported as “almost completely”, the “reporter induction (Katushka2S red pseudocolor = protein synthesis inhibition)” value [2] is reported as “red pseudocolor reporter induction was observed” and the MIC [3] is reported as >90 µM. For the same molecule, the “difference of MIC values, E. coli ΔsbmA versus wild type” value [3] was “approximately eight”, the MIC [4] was 11.6 µM (≈ 27.7 µg/mL) and the MIC ([5]; 168, 18 h) was >50 µM. For the same molecule, the MIC [6] was >50 µM and the Kd ([7]; Figure S3B) was 3 ± 1 nM.
